{"source": "patent US8470984B2", "about": "“Process for the preparation of morpholinyl anthracycline derivatives” (Nerviano Medical Sciences S.R.L., priority 2010, dated 2013)", "origin": "cited, not measured here"}
{"molecule": "COc1cccc2c1C(=O)c1c(O)c3c(c(O)c1C2=O)C[C@@](O)(C(=O)CO)C[C@@H]3O[C@H]1C[C@H]2[C@H](O[C@@H]3[C@@H](OC)OCCN32)[C@H](C)O1", "note": "[compound 1, 3′-deamino-3″-4′-anhydro-[2″(S)-methoxy-3″(R)-hydroxy-4″-morpholinyl]doxorubicin]", "values": [{"measurement": "efficacy in in vivo tumor models", "setting": "tumor models", "result": "effective in in vivo tumor models"}, {"measurement": "cytotoxicity in vitro relative to nemorubicin and doxorubicin", "result": "more cytotoxic than nemorubicin and doxorubicin"}]}
